As usually defined, the IC50 is the point on the concentration scale where inhibition reaches its midpoint.

In brackets after ≈: the same amount, converted by molar mass.

Our source for the Activity and IC50 values is ChEMBL document CHEMBL1159201, “Microbial biotransformation of veratramine” (J Nat Prod, 1998).

The test system of one data set is Vero. Description: Cytotoxicity against african green monkey Vero cells. The data set is classed as cell-based. The note with it: chlorocebus sabaeus.
Another data set deals with Plasmodium falciparum. Description: Antiplasmodial activity against Plasmodium falciparum W2. Type of data set: functional, organism-based.

`Cc1c([C@H](C)[C@@H]2NC[C@@H](C)C[C@H]2O)ccc2c1C[C@H]1[C@H]2CCC2=CC(=O)CC[C@@]21C`: the Activity entry in the data set with Vero is reported as “Non-toxic”.
In turn, `Cc1c([C@H](C)[C@@H]2NC[C@@H](C)C[C@H]2O)ccc2c1C[C@H]1[C@H]2CCC2=CC(=O)C=C[C@@]21C` returned an IC50 in the data set with Plasmodium falciparum of 3.6 µg/mL (≈ 8.88 µM). The Activity result in the data set on Vero was “Non-toxic”.
As for `Cc1c([C@H](C)[C@@H]2NC[C@@H](C)C[C@H]2O)ccc2c1C[C@H]1[C@H]2CC[C@H]2CC(=O)CC[C@@]21C` [DIHYDROVERATRAM-3-ONE], in the data set with Vero, the Activity entry is given as “Non-toxic”.
The same measure, in the same setting: then `Cc1c([C@H](C)[C@@H]2NC[C@@H](C)C[C@H]2O)ccc2c1C[C@H]1[C@H]2CC=C2C[C@@H](O)CC[C@@]21C` [VERATRAMINE], with “Non-toxic”.
